From patent US8637537B2, “Serine/threonine kinase inhibitors” (Genentech, Inc., priority 2011, dated 2014)

Molecular target: T1, human recombinant GST-PAK1-KD protein (Homo sapiens, UniProt Q13153)
T1 construct: residues #249-545 of human PAK1, UniProtKP/Swiss Q13153; His6 (N); made in house; host or cells: Sf9 insect cells, pAcGP67 baculovirus expression vector
Experiment: GST-PAK1-KD (kinase domain) biochemical assay, microfluidic mobility shift
Details: Table II, PAK1 Ki class; read-out: Ki

T1 sequence (Q13153 249-545): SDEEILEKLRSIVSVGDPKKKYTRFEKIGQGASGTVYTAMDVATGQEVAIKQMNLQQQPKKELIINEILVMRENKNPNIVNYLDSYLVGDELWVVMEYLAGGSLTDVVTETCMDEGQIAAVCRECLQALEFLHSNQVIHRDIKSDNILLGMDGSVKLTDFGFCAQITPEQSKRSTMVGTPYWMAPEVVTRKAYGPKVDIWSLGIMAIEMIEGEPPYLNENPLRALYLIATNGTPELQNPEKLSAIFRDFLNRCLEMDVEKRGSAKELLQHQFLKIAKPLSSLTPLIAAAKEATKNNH

Row | Compound | Ki [nM]
1 | COC[C@@H](C)c1cc(Nc2ccnc(N(C)Cc3ccc4[nH]cnc4c3Cl)n2)n[nH]1 [II-80, (S)-N^2-((4-chloro-1H-benzo[d]imidazol-5-yl)methyl)-N^4-(5-(1-methoxypropan-2-yl)-1H-pyrazol-3-yl)-N^2-methylpyrimidine-2,4-diamine] | < 50
2 | Fc1cc(CNc2nccc(Nc3cc([C@H]4C[C@@H]4F)[nH]n3)n2)c2cc[nH]c2c1 [II-82, N^2-((6-fluoro-1H-indol-4-yl)methyl)-N^4-(5-((1R,2S)-2-fluorocyclopropyl)-1H-pyrazol-3-yl)pyrimidine-2,4-diamine] | < 50
3 | CN(C)CCN(Cc1cccc2[nH]ccc12)c1nccc(Nc2cc([C@@H]3C[C@H]3F)[nH]n2)n1 [II-83, N^2-((1H-indol-4-yl)methyl)-N^2-(2-(dimethylamino)ethyl)-N^4-(5-((1S,2R)-2-fluorocyclopropyl)-1H-pyrazol-3-yl)pyrimidine-2,4-diamine] | < 50
4 | CN(Cc1cccc2[nH]ncc12)c1nccc(Nc2cc(C3CC3)[nH]n2)n1 [II-84, N^2-((1H-indazol-4-yl)methyl)-N^4-(5-cyclopropyl-1H-pyrazol-3-yl)-N^2-methylpyrimidine-2,4-diamine] | < 50
5 | CCN(Cc1cc(F)cc2[nH]ncc12)c1ncc(F)c(Nc2cc(C3CC3)[nH]n2)n1 [II-85, N^4-(5-cyclopropyl-1H-pyrazol-3-yl)-N^2-ethyl-5-fluoro-N^2-((6-fluoro-1H-indazol-4-yl)methyl)pyrimidine-2,4-diamine] | < 50
6 | CN(C)CCN(Cc1cc(F)cc2[nH]ncc12)c1ncc(F)c(Nc2cc(C3CC3)[nH]n2)n1 [II-86, N^4-(5-cyclopropyl-1H-pyrazol-3-yl)-N^2-(2-(dimethylamino)ethyl)-5-fluoro-N^2-((6-fluoro-1H-indazol-4-yl)methyl)pyrimidine-2,4-diamine] | < 50
7 | CCN(Cc1cccc2[nH]ncc12)c1ncc(F)c(Nc2cc(C3CC3)[nH]n2)n1 [II-87, N^2-((1H-indazol-4-yl)methyl)-N^4-(5-cyclopropyl-1H-pyrazol-3-yl)-N^2-ethyl-5-fluoropyrimidine-2,4-diamine] | < 50
8 | CN(C)CCN(Cc1cccc2[nH]ccc12)c1nccc(Nc2cc([C@H]3C[C@@H]3F)[nH]n2)n1 [II-88, N^2-((1H-indol-4-yl)methyl)-N^2-(2-(dimethylamino)ethyl)-N^4-(5-((1R,2S)-2-fluorocyclopropyl)-1H-pyrazol-3-yl)pyrimidine-2,4-diamine] | < 50

Now from value to compound:

Row | Ki [nM] | Compound
9 | < 50 | CN(C)CCN(Cc1cccc2[nH]ccc12)c1nccc(Nc2cc(C3CC3)[nH]n2)n1 [II-89, N^2-((1H-indol-4-yl)methyl)-N^4-(5-cyclopropyl-1H-pyrazol-3-yl)-N^2-(2-(dimethylamino)ethyl)-pyrimidine-2,4-diamine]
10 | < 50 | c1cc(Nc2cc(C3CC3)[nH]n2)nc(N(Cc2ccc3[nH]cnc3c2)C2CCNCC2)n1 [II-90, N^2-((1H-benzo[d]imidazol-5-yl)methyl)-N^4-(5-cyclopropyl-1H-pyrazol-3-yl)-N^2-(piperidin-4-yl)pyrimidine-2,4-diamine]
11 | < 50 | Cc1cc(Nc2nc(N(C)Cc3ccc4[nH]cnc4c3Cl)ncc2F)n[nH]1 [II-91, N^2-((4-chloro-1H-benzo[d]imidazol-5-yl)methyl)-5-fluoro-N^2-methyl-N^4-(5-methyl-1H-pyrazol-3-yl)pyrimidine-2,4-diamine]
12 | < 50 | CCN(Cc1cc(F)cc2[nH]ncc12)c1nccc(Nc2cc([C@H](C)C3CC3)[nH]n2)n1 [II-92, (R)-N^4-(5-(1-cyclopropylethyl)-1H-pyrazol-3-yl)-N^2-ethyl-N^2((6-fluoro-1H-indazol-4-yl)methyl)pyrimidine-2,4-diamine]
13 | < 50 | CN(Cc1cccc2[nH]ncc12)c1ncc(F)c(Nc2cc(C3CC3)[nH]n2)n1 [II-93, N^2-((1H-indazol-4-yl)methyl)-N^4-(5-cyclopropyl-1H-pyrazol-3-yl)-5-fluoro-N^2-methylpyrimidine-2,4-diamine]
